Measured values: patent US20070015232A1, “Mitotic index assay” (DiscoveRx, Inc., priority 2005, published 2007)

Legend:
[1] = tested on: CHO-K1+EA-NLS/NRS+GR-PL cells; assay: EFC mitotic index assay, CHO-K1+EA-NLS/NRS+GR-PL cells, antibiotic selected pool (DX M19/GR pool); assay type: cell-based; settings: 24 hours, 30 min read
Description: (§1) In all experiments described, 20,000 cells/well were plated in a 96 well Corning clear bottom white plate in a total volume of 100 μL. The cells were treated for 24 hours with 5 μL of either the appropriate vehicle control or varying concentrations of the six compounds listed above. The next day, 100 μL of Tropix/ABI Gal screen cell lysis buffer/substrate mixture (24:1 ratio of component) was added to the cells/media and the plate was read on the Victor II luminescent plate reader at 30, 60 and 120 minutes after the lysis/substrate addition.
(§2) The initial test of the cell cycle arresting compounds was performed on a double stable cell line having both of the constructs expressing the EA-NLS/NRS and GR-PL. (PL is β-galactosidase enzyme donor fragment and EA is the enzyme acceptor fragment available from DiscoveRx, Fremont, CA.). The parental line, C2C12 is derived from mouse muscle cells. In the experiments in which EA-NLS/NRS and GR-PL are expressed in the C2C12 parental cell line, the constructs were generated by subcloning the human GR sequence into a MFG-based retroviral vector that had been molecularly altered in a lab at Stanford. An MFG vector is described in U.S. Pat. No. 6,544,771. The EA-NLS/NRS fragment was subcloned into a wzl-based retroviral vector again molecularly altered in a lab at Stanford. In the experiments performed using a CHO-K1 parental cell line background the EA-NLS/NRS was subcloned into the Kpn I and Xba I sites of pcDNA3.1 Hygro vector from Invitrogen (catalog #V870-20). The plasmid was introduced into the cells via FuGene6 (Roche) transfection reagent. Cells were selected in the presence of 250 μg/mL of Hygromycin and single cell clones isolated that expressed the EA-NLS/NRS. The human GR gene was cloned by PCR and subcloned into the Xho I and Bam HI sites of the DiscoveRx vector-pCMV-myc-PL (C3). The plasmid was introduced into the selected EA-NLS/NRS expressing clone isolated above by FuGene 6 transfection. Another round of screening in the presence of 300-500 μg/mL of G418 was used to select GR-PL transfected clones. Clonal selection was performed to finally identify the clone that was used in these studies. In the studies using the CHO-K1+cyto-EA and cJUN-PL, the same Invitrogen pcDNA3.1 Hygro vector was used to express EA. In this case, the EA fragment was subcloned into the Kpn I/Not I sites of pcDNA3.1 Hygro. The plasmid DNA was introduced as described above using FuGene6 reagent. Cells were selected in the presence of 250 μg/mL of hygromycin and clonal selection was performed. The c-Jun gene was generated by PCR using an existing template copy of the gene and then subcloned into the Xho I/Bam HI sites of pCMV-PL-myc (C3).
In the next experiment, an antibiotic selected pool population of CHO-K1 cells that express EA-NLS/NRS and GR-PL were tested with the same six set of cell cycle blocking compounds. […] FIGS. 2a and 2b show the immunofluorescence localization of EA and GR-PL in that the blue DAPI nuclear staining can be seen to be concentrated in the nucleus, while the green fluorescein stain on the antibody (from Abcam PLC) to the glucocorticoid receptor is seen in the cytoplasm. […] Again, six tables are presented one for each of the six drugs tested.
This only occurs with compounds that block the cells in mitosis, allowing EA and ProLabel to complement.

[2] = tested on: Clone #69 CHO-K1 cells expressing EA-NLS/NRS and GR-PL; assay: EFC assay in stable clone #69 (CHO-K1, EA-NLS/NRS and GR-PL) with or without RU486 pre-incubation; assay type: cell-based; settings: for Avg luminescence readout / R1 luminescence readout / R3 luminescence readout / Ratio (Avg vs 0 conc): overnight, vehicle pre-incubation
Description: In the next experiment, a stable clone (clone #69) expressing both EA-NLS/NRS and GR-PL was isolated in a CHO-K1 parental background. […] 20,000 cells/well were plated in a 96 well white coming multi-well plate and allowed to adhere overnight. The next day, the cells were washed two times with serum free F12 media and 100 μL of serum free F12 media was added to the cells. The cells were then incubated in either vehicle (ethanol-1% final concentration) or 10 μM RU486 for one hour. To the cells, three different concentrations of dexamethasone (300, 100, 30 μM) (an agonist of GR), RU486 (30, 10, 3.33 μM), colchicine (1, 0.3, 0.1 μ/mL) or nocodazole (10, 3.33, 1.11 μg/mL) were added and the incubation went overnight at 37° C. with 5% CO2. The next day, the media was aspirated off and 100 μL of Tropix/ABI Gal screen cell lysis/substrate reagent was added to the cells. The plate was read on the Victor II reader at 30, 60 and 120 minutes.

[3] = tested on: C2C12+EA-NLS/NRS+GR-PL cells; assay: EFC mitotic index assay, C2C12+EA-NLS/NRS+GR-PL cells (Stanford GR cells); assay type: cell-based, mouse; settings: 24 hours, 30 min read
Description: as §1, §2

[4] = tested on: CHO-K1+cyto-EA cells transfected with cJUN-PL; assay: EFC mitotic index assay, CHO-K1+cyto-EA cells transiently transfected with cJUN-PL; assay type: cell-based; settings: for Avg luminescence readout / R1 luminescence readout / R3 luminescence readout / Ratio (Avg vs 0 conc): overnight
Description: as §2
To further test the concept of sequestering of one β-galactosidase enzyme fragment in the nucleus (in this case PL) while localizing the other component in the cytoplasm (in this case EA) the following experiment was carried out. […] The cyto-EA cells were transiently transfected with cJUN-PL plasmid DNA. Two days after the transfection, the cells were re-plated into a 96 well Corning white clear bottom multiwell plate at 20,000 cells/well. The cells were allowed to adhere overnight and the next day were treated with titrating concentrations of the six different cell cycle blocking compounds. The incubation was carried out overnight. The next day the media was removed from the cells and 100 μL of Tropix/ABI Gal screen cell lysis/substrate reagent was added to the cells.

[5] = High conc (nocodazole 10 μg/mL, colchicine 1 μ/mL, dexamethasone 300 μM, RU486 30 μM)
[6] = Low conc (nocodazole 1.11 μg/mL, colchicine 0.1 μ/mL, dexamethasone 30 μM, RU486 3.33 μM)
[7] = Med conc (nocodazole 3.33 μg/mL, colchicine 0.3 μ/mL, dexamethasone 100 μM, RU486 10 μM)

`COc1cc2c(c(OC)c1OC)-c1ccc(OC)c(=O)cc1[C@@H](NC(C)=O)CC2` [Colchicine, colchicine] gave an Avg luminescence readout ([1]; 0.03 μM) of 3412, an R1 luminescence readout ([1]; 0.03 μM) of 3128 and an R3 luminescence readout ([1]; 0.03 μM) of 3727. The “Ratio (Avg vs 0 conc)” value ([1]; 0.03 μM) was 1, the Avg luminescence readout ([1]; 0.1 μM) was 5814 and the R1 luminescence readout ([1]; 0.1 μM) was 6507. The R3 luminescence readout ([1]; 0.1 μM) was 4886, the “Ratio (Avg vs 0 conc)” value ([1]; 0.1 μM) was 2 and the Avg luminescence readout ([1]; 0.3 μM) was 7251. For the same compound, the R1 luminescence readout ([1]; 0.3 μM) was 7078, the R3 luminescence readout ([1]; 0.3 μM) was 7341 and the “Ratio (Avg vs 0 conc)” value ([1]; 0.3 μM) was 3. For the same compound, the Avg luminescence readout ([1]; 1 μM) was 11843, the R1 luminescence readout ([1]; 1 μM) was 10671 and the R3 luminescence readout ([1]; 1 μM) was 13178. For the same compound, the “Ratio (Avg vs 0 conc)” value ([1]; 1 μM) was 4, the “effect of incubation with RU486 on the EFC response (in words)” value ([2]; 10 μM RU486 pre-incubation for one hour) was “not blocked by the incubation with RU486” and the Avg luminescence readout [2, 5] was 1623. For the same compound, the R1 luminescence readout [2, 5] was 1850, the R3 luminescence readout [2, 5] was 1323 and the “Ratio (Avg vs 0 conc)” value [2, 5] was 4. The Avg luminescence readout [2, 6] was 1136, the R1 luminescence readout [2, 6] was 1274 and the R3 luminescence readout [2, 6] was 1007. The “Ratio (Avg vs 0 conc)” value [2, 6] was 3, the Avg luminescence readout [2, 7] was 1241 and the R1 luminescence readout [2, 7] was 1345. The R3 luminescence readout [2, 7] was 1073, the “Ratio (Avg vs 0 conc)” value [2, 7] was 3 and the Avg luminescence readout ([3]; 0.03 μM) was 11782. For the same compound, the R1 luminescence readout ([3]; 0.03 μM) was 10442, the R3 luminescence readout ([3]; 0.03 μM) was 12456 and the “Ratio (Avg vs 0 conc)” value ([3]; 0.03 μM) was 1. For the same compound, the Avg luminescence readout ([3]; 0.1 μM) was 9170, the R1 luminescence readout ([3]; 0.1 μM) was 6763 and the R3 luminescence readout ([3]; 0.1 μM) was 10724. The “Ratio (Avg vs 0 conc)” value ([3]; 0.1 μM) was 1, the Avg luminescence readout ([3]; 0.3 μM) was 11243 and the R1 luminescence readout ([3]; 0.3 μM) was 11132. For the same compound, the R3 luminescence readout ([3]; 0.3 μM) was 12160, the “Ratio (Avg vs 0 conc)” value ([3]; 0.3 μM) was 1 and the Avg luminescence readout ([3]; 1 μM) was 12083. For the same compound, the R1 luminescence readout ([3]; 1 μM) was 11891, the R3 luminescence readout ([3]; 1 μM) was 11866 and the “Ratio (Avg vs 0 conc)” value ([3]; 1 μM) was 1. The Avg luminescence readout ([4]; 0.3 μg/mL) was 8548, the R1 luminescence readout ([4]; 0.3 μg/mL) was 7491 and the R3 luminescence readout ([4]; 0.3 μg/mL) was 9730. The “Ratio (Avg vs 0 conc)” value ([4]; 0.3 μg/mL) was 1.2, the Avg luminescence readout ([4]; 1.0 μg/mL) was 10762 and the R1 luminescence readout ([4]; 1.0 μg/mL) was 11290. For the same compound, the R3 luminescence readout ([4]; 1.0 μg/mL) was 9929, the “Ratio (Avg vs 0 conc)” value ([4]; 1.0 μg/mL) was 1.5 and the Avg luminescence readout ([4]; 3.0 μg/mL) was 13255. The R1 luminescence readout ([4]; 3.0 μg/mL) was 12822, the R3 luminescence readout ([4]; 3.0 μg/mL) was 13005 and the “Ratio (Avg vs 0 conc)” value ([4]; 3.0 μg/mL) was 1.9. The Avg luminescence readout ([4]; 10.0 μg/mL) was 14719, the R1 luminescence readout ([4]; 10.0 μg/mL) was 13772 and the R3 luminescence readout ([4]; 10.0 μg/mL) was 14302. The “Ratio (Avg vs 0 conc)” value ([4]; 10.0 μg/mL) was 2.1 and the “increase in EFC activity” value ([4]; overnight incubation) was ~2.1 fold.
Work on `C[C@@H]1C[C@H]2[C@@H]3CCC4=CC(=O)C=C[C@]4(C)[C@@]3(F)[C@@H](O)C[C@]2(C)[C@@]1(O)C(=O)CO` [Dexamethasone, dexamethasone] yielded an Avg luminescence readout [2, 5] of 2559, an R1 luminescence readout [2, 5] of 3173 and an R3 luminescence readout [2, 5] of 1934. The “Ratio (Avg vs 0 conc)” value [2, 5] was 7, the Avg luminescence readout [2, 6] was 1258 and the R1 luminescence readout [2, 6] was 1528. The R3 luminescence readout [2, 6] was 1016, the “Ratio (Avg vs 0 conc)” value [2, 6] was 3 and the Avg luminescence readout [2, 7] was 1697. The R1 luminescence readout [2, 7] was 2033, the R3 luminescence readout [2, 7] was 1290 and the “Ratio (Avg vs 0 conc)” value [2, 7] was 4.
